Patent publication US20220363668A1, “ENZYME INHIBITORS” (KALVISTA PHARMACEUTICALS LIMITED, priority 2019, published 2022)

Experiments:
Human FXIa = target: T1, Human FXIa (Homo sapiens, UniProt P03951); assay: Determination of the % Inhibition for FXIa (IC50, fluorogenic substrate Z-Gly-Pro-Arg-AFC); format: biochemical; settings: Selectivity, Human FXIa (Enzyme Research Laboratories), 25° C.
T1 construct: purchased Enzyme Research Laboratories
Description: Determination of the % Inhibition for FXIa
FXIa inhibitory activity in vitro was determined using standard published methods (see e.g. Johansen et al., Int. J. Tiss. Reac. 1986, 8, 185; Shori et al., Biochem. Pharmacol., 1992, 43, 1209; Stürzebecher et al., Biol. Chem. Hoppe-Seyler, 1992, 373, 1025). Human FXIa (Enzyme Research Laboratories) was incubated at 25° C. with the fluorogenic substrate Z-Gly-Pro-Arg-AFC and various concentrations of the test compound. Residual enzyme activity (initial rate of reaction) was determined by measuring the change in fluorescence at 410 nm and the IC50 value for the test compound was determined.

Human Factor XIIa = target: T2, Human Factor XIIa (Homo sapiens, UniProt P00748); assay: Determination of the % Inhibition for FXIIa (IC50, fluorogenic substrate H-DPro-Phe-Arg-AFC); format: biochemical; settings: Human Factor XIIa (Enzyme Research Laboratories), 25° C.
T2 construct: purchased Enzyme Research Laboratories
T2 sequence (P00748 373-615 limits assumed): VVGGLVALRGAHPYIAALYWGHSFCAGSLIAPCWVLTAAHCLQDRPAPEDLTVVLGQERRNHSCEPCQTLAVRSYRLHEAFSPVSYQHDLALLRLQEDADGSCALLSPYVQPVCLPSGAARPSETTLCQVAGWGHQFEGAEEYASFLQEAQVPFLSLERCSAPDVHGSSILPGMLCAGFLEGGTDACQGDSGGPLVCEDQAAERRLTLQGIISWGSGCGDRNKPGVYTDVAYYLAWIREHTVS
Description: Determination of the % Inhibition for FXIIa
Factor XIIa inhibitory activity in vitro was determined using standard published methods (see e.g. Shori et al., Biochem. Pharmacol., 1992,43, 1209; Baeriswyl et al., ACS Chem. Biol., 2015, 10 (8) 1861; Bouckaert et al., European Journal of Medicinal Chemistry 110 (2016) 181). Human Factor XIIa (Enzyme Research Laboratories) was incubated at 25° C. with the fluorogenic substrate H-DPro-Phe-Arg-AFC and various concentrations of the test compound. Residual enzyme activity (initial rate of reaction) was determined by measuring the change in […] at 410 nm and the IC50 value for the test compound was determined.

T1 sequence (P03951 388-625 limits assumed): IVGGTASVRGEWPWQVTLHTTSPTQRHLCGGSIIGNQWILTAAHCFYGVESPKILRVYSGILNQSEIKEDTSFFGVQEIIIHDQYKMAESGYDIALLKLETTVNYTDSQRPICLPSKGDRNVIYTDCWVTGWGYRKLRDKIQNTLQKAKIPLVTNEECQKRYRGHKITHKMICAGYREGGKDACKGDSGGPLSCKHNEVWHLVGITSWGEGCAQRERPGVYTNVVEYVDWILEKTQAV
T1 sequence (P03951 19-387 partner limits assumed): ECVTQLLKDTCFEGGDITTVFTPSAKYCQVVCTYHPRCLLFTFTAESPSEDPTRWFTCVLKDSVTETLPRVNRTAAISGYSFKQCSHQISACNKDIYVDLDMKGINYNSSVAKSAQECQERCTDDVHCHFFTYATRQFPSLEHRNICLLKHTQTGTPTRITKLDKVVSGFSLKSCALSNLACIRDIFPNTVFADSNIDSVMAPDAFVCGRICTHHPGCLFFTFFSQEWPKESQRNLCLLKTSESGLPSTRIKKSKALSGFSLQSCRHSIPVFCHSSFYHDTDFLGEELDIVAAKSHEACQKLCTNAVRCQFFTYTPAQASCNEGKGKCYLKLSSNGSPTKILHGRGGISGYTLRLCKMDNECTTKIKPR

SMILES | IC50 (Human FXIa) | IC50 (Human Factor XIIa)
CN1CCC(COc2ccc(NCc3ccc4c(N)nccc4c3)cn2)CC1 [Example 18.12] | 33.1 µM | 
CN1CCC(COc2ccc(NCc3ccc4c(N)nccc4c3)cc2CCO)CC1 [Example 18.17] |  | < 1 µM
CN1CCC(COc2cnc(NCc3ccc4c(N)nccc4c3)cn2)CC1 [Example 18.10, 6-(((5-((1-Methylpiperidin-4-yl)methoxy)pyrazin-2-yl)amino)methyl)isoquinolin-1-amine] | 24.8 µM | < 1 µM
CN1CCC(Oc2ccnc(NCc3ccc4c(N)nccc4c3)c2)CC1 [Example 18.202, 6-(((4-((1-methylpiperidin-4-yl)oxy)pyridin-2-yl)amino)methyl)isoquinolin-1-amine] | > 40 µM | < 1 µM
CN1CCC(COc2ccc(NCc3ccc4c(N)nccc4c3)cn2)CC1 [Example 18.11, 6-(((6-((1-Methylpiperidin-4-yl)methoxy)pyridin-3-yl)amino)methyl)isoquinolin-1-amine] | 17.9 µM | < 1 µM
CN1CCC(Oc2ccc(NCc3ccc4c(N)nccc4c3)cc2)CC1 [Example 18.08, 6-(((4-((1-Methylpiperidin-4-yl)oxy)phenyl)amino)methyl)isoquinolin-1-amine] | > 40 µM | < 1 µM
CN1CCC(Oc2ccc(NCc3ccc4c(N)nccc4c3)nc2)CC1 [Example 18.01, 6-(((5-((1-Methylpiperidin-4-yl)oxy)pyridin-2-yl)amino)methyl)isoquinolin-1-amine] | 36.4 µM | 1 to 3 µM
CN1CCCC(Oc2ccnc(NCc3ccc4c(N)nccc4c3)c2)C1 (stereo not shown) [Example 18.210] |  | 1 to 3 µM
CN1CCC(Oc2cnc(NCc3ccc4c(N)nccc4c3)nc2)CC1 [Example 18.02, 6-[({5-[(1-Methylpiperidin-4-yl)oxy]pyrimidin-2-yl}amino)methyl]isoquinolin-1-amine] |  | 10 to 40 µM
Nc1nccc2cc(CNc3ccc(OC4CCNCC4)cc3)ccc12 [Example 18.07] |  | 1 to 3 µM
CN1CCC(Oc2cccc(NCc3ccc4c(N)nccc4c3)c2)CC1 [Example 18.211] |  | 1 to 3 µM
Nc1nccc2cc(CNc3cc(OCCN4CCOCC4)ccn3)ccc12 [Example 18.208] |  | 10 to 40 µM
Nc1nccc2cc(CNc3ccc(OCCN4CCOCC4)cn3)ccc12 [Example 18.09, 6-(((5-(2-Morpholinoethoxy)pyridin-2-yl)amino)methyl)isoquinolin-1-amine] |  | 10 to 40 µM
CN1CCC(Oc2cncc(NCc3ccc4c(N)nccc4c3)c2)CC1 [Example 18.212] |  | 1 to 3 µM
CN1CCC(Oc2cnc(NCc3ccc4c(N)nccc4c3)cn2)CC1 [Example 18.05] | 19.9 µM | < 1 µM
CN1CCC(CNC(=O)c2ccc(NCc3ccc4c(N)nccc4c3)nc2)CC1 [Example 18.13] |  | 3 to 10 µM
CN1CCC(Oc2cncc(NCc3ccc4c(N)nccc4c3)n2)CC1 [Example 18.207, 6-(((6-((1-Methylpiperidin-4-yl)oxy)pyrazin-2-yl)amino)methyl)isoquinolin-1-amine] |  | 10 to 40 µM
CN1CCC(NC(=O)c2ccc(NCc3ccc4c(N)nccc4c3)nc2)CC1 [Example 18.16] |  | 10 to 40 µM
CN1CCC(COc2ccc(NCc3ccc4c(N)nccc4c3)cc2)CC1 [Example 18.18, 6-(((4-((1-Methylpiperidin-4-yl)methoxy)phenyl)amino)methyl)isoquinolin-1-amine] |  | < 1 µM
Nc1nccc2cc(CNc3ccc(COC4CCNCC4)cn3)ccc12 [Example 18.19, 6-(((5-((Piperidin-4-yloxy)methyl)pyridin-2-yl)amino)methyl)isoquinolin-1-amine] |  | 3 to 10 µM
CN1CCC(Oc2cccc(NCc3ccc4c(N)nccc4c3)n2)CC1 [Example 18.203] |  | 10 to 40 µM
CN1CCN(C(=O)c2ccnc(NCc3ccc4c(N)nccc4c3)c2)CC1 [Example 18.205] |  | 10 to 40 µM

Other lines, results leading:

IC50 (Human FXIa) | IC50 (Human Factor XIIa) | SMILES
> 40 µM | < 1 µM | CN1CCC(COc2ccc(NCc3ccc4c(N)nccc4c3)nc2)CC1 [Example 18.04, 6-(((5-((1-Methylpiperidin-4-yl)methoxy)pyridin-2-yl)amino)methyl)isoquinolin-1-amine]
 | 1 to 3 µM | CN1CCC(OCc2ccnc(NCc3ccc4c(N)nccc4c3)c2)CC1 [Example 18.206, 6-(((4-(((1-Methylpiperidin-4-yl)oxy)methyl)pyridin-2-yl)amino)methyl)isoquinolin-1-amine]
 | 1 to 3 µM | CN1CCC(Oc2cc(NCc3ccc4c(N)nccc4c3)ncn2)CC1 [Example 18.209]
 | 3 to 10 µM | CN1CCC(CNC(=O)c2cccc(NCc3ccc4c(N)nccc4c3)n2)CC1 [Example 18.201, 6-(((1-Aminoisoquinolin-6-yl)methyl)amino)-N-((1-methylpiperidin-4-yl)methyl)picolinamide]
 | 3 to 10 µM | Nc1nccc2cc(CNc3cc(OC4CCNCC4)ccn3)ccc12 [Example 18.213, 6-(((4-(Piperidin-4-yloxy)pyridin-2-yl)amino)methyl)isoquinolin-1-amine]
> 40 µM | < 1 µM | CN1CCC(OCc2ccc(NCc3ccc4c(N)nccc4c3)nc2)CC1 [Example 18.03, 6-(((5-(((1-Methylpiperidin-4-yl)oxy)methyl)pyridin-2-yl)amino)methyl)isoquinolin-1-amine]
 | 1 to 3 µM | CN1CCCC(COc2ccc(NCc3ccc4c(N)nccc4c3)nc2)C1 (stereo not shown) [Example 18.14]
 | < 1 µM | CN1CCC(COc2ccc(NCc3ccc4c(N)nccc4c3)cc2CO)CC1 [Example 18.15, (5-(((1-Aminoisoquinolin-6-yl)methyl)amino)-2-((1-methylpiperidin-4-yl)methoxy)phenyl)methanol]
 | 3 to 10 µM | CN1CCC(NC(=O)c2ccnc(NCc3ccc4c(N)nccc4c3)c2)CC1 [Example 18.204, 2-(((1-Aminoisoquinolin-6-yl)methyl)amino)-N-(1-methylpiperidin-4-yl)isonicotinamide]
 | 1 to 3 µM | CN1CCC(Oc2ccc(NCc3ccc4c(N)nccc4c3)nn2)CC1 [Example 18.06]
